Reference: patent US20240252508A1, “Novel glucose uptake inhibitors for use in the treatment of cancer” (NOVELYEAST BV, priority 2021, published 2024)
pIC50, pKi: −log10 of the molar value. “Also recorded” adds a separate entry of the source. Where two headings read alike, the source gives them in different places.

Experiments:
[1] = biological target: T1, human GLUT4^V85M (Homo sapiens, UniProt P14672, V85M); test: Glucose uptake by GLUT4^V85M expressed in hxt^0 erg4Δ (EBY.VW4000) yeast; type: cell-based; settings: 2.5 mM glucose
T1 construct: HA (C); expressed in transfected cells; host or cells: S. cerevisiae EBY.VW4000 (hxt0 erg4Δ), plasmid pFL38Kan-GLUT4^V85M (TEF1 promoter, low-copy)
T1 sequence (P14672 1-509 V85M): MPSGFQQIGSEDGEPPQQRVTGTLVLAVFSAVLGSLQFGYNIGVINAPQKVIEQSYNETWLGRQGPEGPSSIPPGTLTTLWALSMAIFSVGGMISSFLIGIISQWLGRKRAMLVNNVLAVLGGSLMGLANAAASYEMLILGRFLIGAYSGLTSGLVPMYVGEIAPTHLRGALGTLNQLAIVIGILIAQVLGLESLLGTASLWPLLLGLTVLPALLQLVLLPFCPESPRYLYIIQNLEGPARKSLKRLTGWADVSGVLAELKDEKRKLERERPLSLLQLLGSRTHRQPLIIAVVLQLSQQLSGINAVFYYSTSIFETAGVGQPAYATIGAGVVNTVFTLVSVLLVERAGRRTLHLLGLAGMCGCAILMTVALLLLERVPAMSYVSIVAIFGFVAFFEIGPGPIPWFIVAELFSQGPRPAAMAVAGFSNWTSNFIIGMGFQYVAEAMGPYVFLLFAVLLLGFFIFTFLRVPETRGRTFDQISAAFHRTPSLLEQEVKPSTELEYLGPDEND
Text: To assess whether WBC-A could inhibit glucose transport activity of the GLUT carriers, we expressed human GLUT1^V69M and GLUT4^V85M in a hxt^0 gal2Δ (RE700A) and hxt^0 erg4Δ (EBY.VW4000) strain, respectively. These strains are both deficient in glucose uptake due to absence of all active glucose transporters. For functional GLUT expression in yeast, specific mutations had to be introduced in both sequences, whereas for GLUT4, an additional ERG4 gene deletion was required^64,65,66.
Zero-trans uptake of radioactively labeled [U-^14C]glucose, [U-^14C]fructose or [U-^14C]galactose by S. cerevisiae cells was determined in accordance with previous studies^44,66. Cells were grown on different carbon sources depending on the experiment. For measuring glucose uptake activity in the tps1Δ and tps1Δ hxtA strains (FIG. 1b,c), cells were grown on YP medium containing 3% glycerol (measurement of 10s). Typically, for compound characterization and kinetic studies in wild type and tps1Δ strains, cells were (pre)grown on Complete Synthetic medium supplemented with 2% galactose (measurement of 10s). […] The loaded filter was transferred to a scintillation vial containing 3 mL liquid scintillation cocktail (Ultima-Flo M, Perkin Elmer) and counted using the Hidex 300 SL. […]

[2] = test system: tps1Δ cells; test: Zero-trans glucose uptake in tps1Δ yeast cells; type: cell-based, S. cerevisiae; settings: for pKi: Dixon plot analysis
Description: Zero-trans uptake of radioactively labeled [U-^14C]glucose, [U-^14C]fructose or [U-^14C]galactose by S. cerevisiae cells was determined in accordance with previous studies^44,66. Cells were grown on different carbon sources depending on the experiment. For measuring glucose uptake activity in the tps1Δ and tps1Δ hxtA strains (FIG. 1b,c), cells were grown on YP medium containing 3% glycerol (measurement of 10s). Typically, for compound characterization and kinetic studies in wild type and tps1Δ strains, cells were (pre)grown on Complete Synthetic medium supplemented with 2% galactose (measurement of 10s). In the experiments on the influence of hexokinase activity on the sugar uptake rate, the measurement duration was shortened to 5s and cells were always grown on YP medium containing 3% glycerol and 2% ethanol. After harvesting, cells were washed twice with ice-cold 25 mM MES-buffer pH 6, and resuspended in their respective medium without sugar to a final concentration of 45 mg (wet weight)/mL. The amount of added tracer was estimated to give a response close to at least 1000 counts per min in order to adequately counter background noise. Cells were first preincubated for 10 min at 30° C. with the compound to acclimate the cells to the temperature and to allow adequate interaction with the compound prior to uptake. Next, hexose sugar was mixed with the cell suspension, which was then incubated for 5 or 10 s, depending on the experiment, after which the cells were rapidly filtered over a glass microfiber filter (Whatman GF/C) and washed three times with ice-cold dH2O. The loaded filter was transferred to a scintillation vial containing 3 mL liquid scintillation cocktail (Ultima-Flo M, Perkin Elmer) and counted using the Hidex 300 SL. Three blank measurements per strain were typically included to account for background signal, for which the cells were first quenched before adding the radioactive label.

[3] = test system: A549 lung adenocarcinoma cells; test: 2-deoxyglucose uptake in A549 cells; type: cell-based, human
Description: Zero-trans glucose uptake in A549 cells was approximated by measuring the uptake of [1,2-^3H]2-deoxyglucose. For this purpose, A549 cells were pregrown in RPMI medium containing 10 mM glucose in a 24-well plate to a cell density of around 100,000 cells/well. Prior to adding radioactive label, cells were gently washed twice in Krebs-Ringer-HEPES buffer (50 mM HEPES pH 7.4, 137 mM NaCl, 4.7 mM KCl, […], 1.3 mM MgSO4 and 0.1% w/v BSA) at 30° C. to remove any residual sugar. RPMI medium without sugar containing the compound intended for treatment, was added to the cells for 15 min at 37° C. to allow adequate interaction of the cells with the compound.
The uptake measurement was initiated by adding an equal volume of medium containing radiolabeled 2DG. After 3-4 min, medium was aspirated and cells were gently washed three times with ice-cold Krebs-Ringer-HEPES buffer. Cells were lysed by adding 200 μL of ice-cold 0.1 M NaOH solution and incubating the plate for 10 min at 37° C. Cell lysates were transferred to scintillation vials for subsequent scintillation counting. For blank measurements, cells were incubated with 50 μM Cytochalasin B prior to the uptake measurement.

[4] = Warbicin toxicity and tolerability in mice; type: in vivo, NMRI-nu mice
Description: Warbicin in vivo toxicity and tolerability was examined by subjecting NMRI-nu mice to daily intraperitoneal injection of either WBC-A, WBC-15C, WBC-4C or WBC-11C. Compounds were dosed at either 5 mg/kg, 10 mg/kg or 20 mg/kg over a period of 20 days. Three mice were used per condition. To evaluate toxicity, change in body weight was registered daily. As a humane endpoint, mice that lost more than 20% of their original body weight were prematurely sacrificed. An optimal dissolve strategy was developed to administer WBC compounds by intraperitoneal injection. Due to their considerable hydrophobicity, compounds were dissolved in a sterilized 1×PBS, 5% DMSO and 5% Tween-80 solution. For WBC-A, -15C and -4C, this gives an initial clear solution that gradually changes over time into a homogenous suspension which can still be administered in a reproducible way. For WBC-11C it immediately results in a homogenous suspension.

## Cc1nc(Sc2nnc3n2CCCCC3)c2c(-c3cccs3)csc2n1 [WBC-A]
[1]
  pIC50: 4.68
[2]
  pKi: 5.08
[2]; printed K′, read-out: K′i, glucose uptake, tps1Δ cells
  pKi: 4.45
[2]; Lineweaver-Burk plot analysis
  Type of inhibition of glucose uptake, tps1Δ cells: mixed type
[3]; Dixon plot analysis, read-out: Ki (=K′i), 2-deoxyglucose uptake in A549 cells
  pKi: 4.28
[3]; Lineweaver-Burk plot analysis
  Type of inhibition of 2-deoxyglucose uptake in A549 cells: noncompetitive
[4]; daily i.p. 5, 10, 20 mg/kg, 20 days
  Other abnormalities at autopsy: No other abnormalities
[4]; daily i.p. 5, 10 and 20 mg/kg, nude mice
  Loss in body weight over 20 days: no significant loss in body weight; also recorded: No significant difference
[4]; sera after 20 days, 5, 10, 20 mg/kg i.p.
  AST/ALT ratio vs vehicle: No significant difference
[4]; sera post mortem after 20 days, 5, 10, 20 mg/kg i.p.
  Blood glucose level vs vehicle: No significant difference
